Assay [1] concerns A2780. In words: Cytotoxicity against human A2780 cells. The following applies: read-out: ID50 (the source's name). The class given is functional.
In assay [2] the test system is K562. Kind of assay: Cytotoxicity against human K562 cells. Format: functional. The following applies: read-out: ID50 (the source's name).

The structures appear in SMILES notation. In brackets after ≈: the same amount, converted by molar mass.

Regarding `CNCCCOc1c(Br)cc(CCNC(=O)C2=NO[C@]3(C=C(Br)C(OC)=C(Br)[C@@H]3O)C2)cc1Br`, the IC50 in assay [1] was found to be 7.44 µg/mL (≈ 10.2 µM); in assay [2], 6.02 µg/mL (≈ 8.23 µM).
Turning to `COC1=C(Br)[C@@H](O)[C@]2(C=C1Br)CC(C(=O)NCCc1cnc[nH]1)=NO2` [AEROPHOBIN 1], the IC50 in assay [1] came to 21.5 µg/mL (≈ 45.2 µM); in assay [2] it was 24.1 µg/mL (≈ 50.6 µM).
Regarding `COC1=C(Br)[C@H](O)[C@@]2(C=C1Br)CC(C(=O)NCCCc1cnc(N)[nH]1)=NO2` [AEROPHOBIN 2], the figures for the IC50 in assay [1] and in assay [2] were greater than 10 µg/mL and 6.91 µg/mL (≈ 13.7 µM), respectively.
`COc1ccc(C/C(=N/O)C(=O)NCCc2cc(Br)c(OCCCN(C)C)c(Br)c2)cc1Br` [APLYSAMINE 2]: the IC50 in assay [1] was 2.83 µg/mL (≈ 4.35 µM); in assay [2], 1.37 µg/mL (≈ 2.11 µM).
In the same order, the values of `COC1=C(Br)[C@@H](O)[C@]2(C=C1Br)CC(C(=O)NCCCOc1c(Br)cc(CCN)cc1Br)=NO2` [ARAPLYSILLIN 1] are 18.6 µg/mL (≈ 25.9 µM) and 27.9 µg/mL (≈ 39 µM).
In the same order, the values of `COC1=C(Br)[C@H](O)[C@@]2(C=C1Br)CC(C(=O)NCCCOc1c(Br)cc(CCNC(=O)CCCCCCCCCCCC(C)C)cc1Br)=NO2` [ARAPLYSILLIN 2] are 14.8 µg/mL (≈ 15.7 µM) and 42.7 µg/mL (≈ 45.4 µM).
In the same order, the values of `COC1=C(Br)[C@@H](O)[C@]2(C=C1Br)CC(C(=O)NCCc1cnc(N)[nH]1)=NO2` [PUREALIDIN J] are greater than 10 µg/mL and greater than 10 µg/mL.
Regarding `CNCCCOc1c(Br)cc(CCNC(=O)/C(Cc2ccc(OC)c(Br)c2)=N/O)cc1Br` [PURPUREAMINE I], the IC50 in assay [1] turned out to be 1.7 µg/mL (≈ 2.67 µM); in assay [2], 1.24 µg/mL (≈ 1.95 µM).
Turning to `COc1ccc(C/C(=N\O)C(=O)NCCc2cc(Br)c(OCCC[N+](C)(C)[O-])c(Br)c2)cc1Br` [PURPUREAMINE J], the IC50 in assay [1] was found to be 6.77 µg/mL (≈ 10.2 µM); in assay [2], 5.97 µg/mL (≈ 8.96 µM).

For the origin of these results see ChEMBL document CHEMBL1150155, “Purealidin S and purpuramine J, bromotyrosine alkaloids from the Fijian marine sponge Druinella sp” (2002).
